The assay deals with P. falciparum 3D7 in RBCs, 3H-hypoxanthine incorporation, 48 h. The experiment in a line: blood-stage malaria parasite growth inhibition – cell-based, 3H-hypoxanthine radiolabel, RBCs, Set 2, P. falciparum M17LAP inhibitor project, late-stage follow-up (AID 743274). As to conditions: at 10 µM; stronger effect = higher value.

Calls of active or inactive are those of the source.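 The calls were made as follows: active = malaria parasite growth inhibition of at least 50% at 10 µM in any single replicate well; inactive = under 50% inhibition in every replicate.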

In the case of `CCCCOc1ccc(C(C)(C)C(=O)NO)cc1`, the inhibition is 12% (inactive). Take `CCCCOc1ccc(CNc2c(N(O)Cc3ccccc3)c(=O)c2=O)cc1`: the inhibition was 0% (inactive). Take `O=C(Cc1ccc(Oc2ccccc2)cc1)NO`: the inhibition is 38.5%. Regarding `CCCCCCCCCC(=O)NO`, the inhibition was 53%.

As to `CCCCc1ccc(CC(=O)NO)cc1`, the inhibition was 84.5%. With `CCCCOc1ccc(CC(=O)N(C)O)cc1`, the inhibition is 58%. Regarding `O=C(NO)c1ccc2ccccc2c1`, the inhibition was 53.5%. Turning to `O=C(NO)c1cccc2ccccc12`, the inhibition was 0% (inactive). As to `CCCCOc1ccc(CN(O)C(=O)c2ccccc2)cc1`, the inhibition is 59.5%. With `CCCCOc1ccc(C(C)C(=O)NO)cc1` (stereo unspecified), the inhibition was 59.5%. Turning to `CCCCOc1ccc(C(C)C(=O)OC)cc1` (stereo unspecified), the inhibition was 4.5% (inactive). Consider `COc1ccc(CC(=O)NO)cc1`, for which the inhibition is 50%. The result for `COc1ccc(CCCC(=O)NO)cc1` reads 15.5% (inactive); that for `CC(C)COc1ccc(CC(=O)NO)cc1`, 69%; that for `CC(C)C[C@H](N)C(=O)NO`, 1% (inactive).

Consider `O=C(Cc1ccc2ccccc2c1)NO`, for which the inhibition was 52%. `CCCCOc1ccc(CN(O)C(C)=O)cc1`: the inhibition is 19.5% (inactive). With `CCCCOc1ccc(CNc2c(N(C)O)c(=O)c2=O)cc1` the figure was 63%; with `CCCCOc1ccc(CCC(=O)NO)cc1`, 26% (inactive). The result for `CCCCOc1cccc(CC(=O)NO)c1` reads 32.5% (inactive); that for `CCCCOc1cccc(CC(=O)OC)c1`, 3% (inactive). Regarding `CCC(C)Oc1ccc(CC(=O)NO)cc1` (stereo unspecified), the inhibition was 71%. With `CCCCOc1ccc(C(=O)NO)cc1` the figure was 73.5%; with `N[C@@H](Cc1c[nH]c2ccccc12)C(=O)NO`, 2.5% (inactive). Consider `Cc1ccc(CC(=O)NO)cc1`, for which the inhibition is 53%. With `CCCCOc1ccc(C(C)C(=O)O)cc1` (stereo unspecified) the figure was 0% (inactive); with `CCCOc1ccc(CC(=O)NO)cc1`, 74%. The result for `NC(N)=NCCC[C@H](N)C(=O)NO` reads 0% (inactive); that for `CC(C)(C(=O)NO)c1ccccc1`, 0% (inactive). On to `CCOc1ccc(CC(=O)NO)cc1`, for which the inhibition is 70%. As to `O=C(Cc1ccc(OCc2ccccc2)cc1)NO`, the inhibition is 93%. For the compound `COc1ccc(OCCC(=O)NO)cc1`, the inhibition is 9% (inactive). Regarding `CCCCOc1ccc(CC(=O)O)cc1`, the inhibition is 0% (inactive).

Take `CN(O)C(=O)Cc1ccc(OCc2ccccc2)cc1`: the inhibition is 15.5% (inactive). The result for `O=C(Cc1ccc2c(c1)CCCC2)NO` reads 82.5%; that for `O=C(Cc1cccc2ccccc12)NO`, 14.5% (inactive).

For orientation: inhibition means the change of the read-out against control, counted positive when it falls.

These data come from PubChem BioAssay AID743274 (The Scripps Research Institute Molecular Screening Center, 2014).
